Calls of active or inactive are those of the source. How the calls were made is not given here.
These compounds were tested against Orexin/Hypocretin receptor type 1 (Homo sapiens) (UniProt O43613) (assay: HCRTR1 antagonism measured by time-resolved FRET – cell-based, HTRF, OX1R antagonist probe project, late-stage follow-up (AID 624410)). Conditions: OX1R-expressing cells, HTRF antagonist assay.
Sequence of Orexin/Hypocretin receptor type 1 (Homo sapiens) (O43613 whole entry, looked up): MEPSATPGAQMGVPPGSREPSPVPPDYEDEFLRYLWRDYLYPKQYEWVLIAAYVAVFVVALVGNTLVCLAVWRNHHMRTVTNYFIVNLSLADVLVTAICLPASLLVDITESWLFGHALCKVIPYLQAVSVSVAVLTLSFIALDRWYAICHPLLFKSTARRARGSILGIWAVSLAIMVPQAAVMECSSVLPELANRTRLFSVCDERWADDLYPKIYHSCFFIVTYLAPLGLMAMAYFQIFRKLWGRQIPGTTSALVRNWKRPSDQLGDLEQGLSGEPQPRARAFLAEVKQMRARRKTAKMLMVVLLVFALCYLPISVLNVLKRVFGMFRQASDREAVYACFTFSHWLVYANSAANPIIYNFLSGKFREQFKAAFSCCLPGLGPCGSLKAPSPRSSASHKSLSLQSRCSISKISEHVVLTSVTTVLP

SMILES	IC50
CCc1cc(C(=O)OCC(=O)N2CCC(c3ccccc3)=N2)sc1C	2190 nM
COCCCNC(=O)CCC(=O)NNc1nc2ccccc2c2nc(-c3ccccc3)nn12	6540 nM
CSc1cccc(N2CC(C(=O)NCCN3C(=O)S/C(=C\c4cccnc4)C3=O)CC2=O)c1 (stereo not given)	1900 nM
Cc1c(NS(=O)(=O)c2cccc(C(=O)OCC(=O)N(C)C3CCCCC3)c2)c(=O)n(-c2ccccc2)n1C	750 nM
Cc1noc(C)c1COc1ccc(C(=O)OCC(=O)N2CC(=O)Nc3ccccc32)cc1	inactive
CCN(CC)c1ccc(NC(=O)Cn2c(C(C)NC(=O)c3ccccc3)nc3ccccc32)cc1 (stereo not given)	655 nM
CCOc1ccccc1C(=O)Nc1ccc2nc3n(c(=O)c2c1)CCCCC3	769 nM
COc1ccc(OC)c(S(=O)(=O)NCC(c2ccco2)N2CCc3ccccc32)c1 (stereo not given)	2710 nM
CCOC(=O)N1CCN(C(=O)CSc2ccc(-c3ccccc3)nn2)CC1	inactive
CCc1cc2c(SCC(=O)N(CC)c3c(N)n(Cc4ccccc4)c(=O)[nH]c3=O)ncnc2s1	1610 nM
Cc1cccc(C=NNC(=O)c2cc3c(s2)-c2ccccc2CC3)c1	2820 nM
CCSC1=C(C#N)C(c2ccccc2Cl)C(C(=O)c2cccs2)C(O)(C(F)(F)F)N1 (stereo not given)	611 nM
O=C(CSc1ccc(-c2ccccc2)nn1)c1cccs1	1960 nM
COc1cccc(/C=C2/Oc3ccccc3N(CC(=O)NCC3CCCO3)C2=O)c1 (stereo not given)	468 nM
O=C(CN1C(=O)/C(=C\c2cccc(Br)c2)Oc2ccccc21)NCC1CCCO1 (stereo not given)	277 nM
CC(=C/c1ccccc1)/C=C1/SC(N2CCOCC2)=NC1=O	3020 nM
Fc1cccc(Nc2nc3ccccc3n3cnnc23)c1	3340 nM
O=c1cc(CN2CC(O)Cc3ccc4ccccc4c32)nc2sccn12 (stereo not given)	inactive
CCn1c(SCC(=O)Nc2ccc3c(c2)c2ccccc2n3CC)nnc1-c1cnccn1	844 nM
Cc1ccc(-c2csc3nnc(SCC(=O)Nc4nsc(-c5ccccc5)n4)n23)cc1	3060 nM
COc1cc(OC)c(-c2nc3ccccc3s2)cc1OC	1900 nM
CSc1cccc(NC(=O)C2CCCN2S(=O)(=O)c2ccc(Br)s2)c1 (stereo not given)	386 nM
Cc1ccccc1NC(=O)C1CCCN1S(=O)(=O)c1ccccc1C(F)(F)F (stereo not given)	3740 nM
Cc1cc(Cl)ccc1OCCCC(=O)NCCN1C(=O)S/C(=C\c2cccnc2)C1=O	437 nM
Cc1cccc(NC(=O)[C@@H]2CCCN2S(=O)(=O)c2ccc(Cl)cc2)c1	2030 nM

Reference: PubChem BioAssay AID624410 (The Scripps Research Institute Molecular Screening Center, 2012)
